Publication PMC5218480 (PLoS ONE, 2017)

Tested on: MV-4-11 cells
Test: Gene expression microarray analysis (Affymetrix PrimeView) and GSEA
Assay type: cell-based, human
Parameters: RFU PODN (11730768_x_at) / Fold change /veh PODN (11730768_x_at) / RFU LINC00158 (11744669_a_at) / Fold change /veh LINC00158 (11744669_a_at) / RFU DUSP10 (11751237_a_at) / Fold change /veh DUSP10 (11751237_a_at) / RFU ID3 (11757404_x_at) / Fold change /veh ID3 (11757404_x_at) / RFU PLEKHG5 (11737974_s_at) / Fold change /veh PLEKHG5 (11737974_s_at) / RFU LRRC4B (11730491_at) / Fold change /veh LRRC4B (11730491_at) / RFU GIMAP4 (11747438_a_at) / Fold change /veh GIMAP4 (11747438_a_at) / RFU KRT8 (11758183_x_at) / Fold change /veh KRT8 (11758183_x_at) / RFU CNN1 (11734310_a_at) / Fold change /veh CNN1 (11734310_a_at) / RFU VPS37D (11726825_at) / Fold change /veh VPS37D (11726825_at) / RFU C10orf10 (11716522_x_at) / Fold change /veh C10orf10 (11716522_x_at) / RFU KIR2DL2 /// KIR2DL4 /// KIR2DL5A /// KIR2DL5B /// KIR2DS1 /// KIR2DS2 /// KIR2DS3 /// KIR2DS4 /// KIR3DL3 /// KIR3DL3 /// KIR3DS1 (11738374_at) / Fold change /veh KIR2DL2 /// KIR2DL4 /// KIR2DL5A /// KIR2DL5B /// KIR2DS1 /// KIR2DS2 /// KIR2DS3 /// KIR2DS4 /// KIR3DL3 /// KIR3DL3 /// KIR3DS1 (11738374_at) / RFU C1QL1 (11718748_at) / Fold change /veh C1QL1 (11718748_at) / RFU TMPRSS4 (11747572_a_at) / Fold change /veh TMPRSS4 (11747572_a_at) / RFU HAMP (11756126_x_at) / Fold change /veh HAMP (11756126_x_at) / RFU RNFT2 (11725882_a_at) / Fold change /veh RNFT2 (11725882_a_at) / RFU NR4A2 (11747474_a_at) / Fold change /veh NR4A2 (11747474_a_at) / RFU ABCC12 (11746883_a_at) / Fold change /veh ABCC12 (11746883_a_at) / RFU TMEM136 (11760407_x_at) / Fold change /veh TMEM136 (11760407_x_at) / RFU CLDN22 /// WWC2 (11732394_at) / Fold change /veh CLDN22 /// WWC2 (11732394_at) / RFU HLA-DPB1 (11760878_x_at) / Fold change /veh HLA-DPB1 (11760878_x_at) / RFU SPINT1 (11716480_a_at) / Fold change /veh SPINT1 (11716480_a_at) / RFU GAP43 (11754022_s_at) / Fold change /veh GAP43 (11754022_s_at) / RFU A4GNT (11735810_at) / Fold change /veh A4GNT (11735810_at) / RFU PRB3 (11715151_x_at) / Fold change /veh PRB3 (11715151_x_at) / RFU TUBB4B (11761932_at) / Fold change /veh TUBB4B (11761932_at) / RFU CAPN14 (11732068_a_at) / Fold change /veh CAPN14 (11732068_a_at) / RFU TMCC2 (11721928_a_at) / Fold change /veh TMCC2 (11721928_a_at) / RFU IRGQ (11745062_a_at) / Fold change /veh IRGQ (11745062_a_at) / RFU FAM174B (11720279_a_at) / Fold change /veh FAM174B (11720279_a_at) / RFU TMPRSS4 (11748680_a_at) / Fold change /veh TMPRSS4 (11748680_a_at) / RFU FAM212B (11763350_a_at) / Fold change /veh FAM212B (11763350_a_at) / RFU PLEKHG5 (11743358_a_at) / Fold change /veh PLEKHG5 (11743358_a_at) / RFU ZSCAN30 (11745921_a_at) / Fold change /veh ZSCAN30 (11745921_a_at) / RFU CMKLR1 (11741424_a_at) / Fold change /veh CMKLR1 (11741424_a_at) / RFU LOC101060620 /// MAPK8IP1 (11723275_at) / Fold change /veh LOC101060620 /// MAPK8IP1 (11723275_at) / RFU SPTSSB (11747773_x_at) / Fold change /veh SPTSSB (11747773_x_at) / RFU PRSS12 (11739890_at) / Fold change /veh PRSS12 (11739890_at) / RFU BIN1 (11741810_x_at) / Fold change /veh BIN1 (11741810_x_at) / RFU WNT11 (11732464_a_at) / Fold change /veh WNT11 (11732464_a_at) / RFU C10orf10 (11716521_a_at) / Fold change /veh C10orf10 (11716521_a_at) / RFU C5orf56 (11738089_at) / Fold change /veh C5orf56 (11738089_at) / RFU CYB561 (11721691_x_at) / Fold change /veh CYB561 (11721691_x_at) / RFU ANKRD19P (11752326_a_at) / Fold change /veh ANKRD19P (11752326_a_at) / RFU OR2T12 /// OR2T33 /// OR2T8 (11738714_s_at) / Fold change /veh OR2T12 /// OR2T33 /// OR2T8 (11738714_s_at) / RFU VCAN (11748164_a_at) / Fold change /veh VCAN (11748164_a_at) / RFU JSRP1 (11732532_at) / Fold change /veh JSRP1 (11732532_at) / RFU KRTAP10-11 (11738290_x_at) / Fold change /veh KRTAP10-11 (11738290_x_at) / RFU MYO3A (11730013_a_at) / Fold change /veh MYO3A (11730013_a_at) / RFU EBF3 (11725865_a_at) / Fold change /veh EBF3 (11725865_a_at) / RFU CAMK2N1 (11719241_x_at) / Fold change /veh CAMK2N1 (11719241_x_at) / RFU C5orf56 (11738088_a_at) / Fold change /veh C5orf56 (11738088_a_at) / RFU OLFML3 (11715873_a_at) / Fold change /veh OLFML3 (11715873_a_at) / RFU LOC100653217 /// NTM (11731650_a_at) / Fold change /veh LOC100653217 /// NTM (11731650_a_at) / RFU MAPK11 (11762145_a_at) / Fold change /veh MAPK11 (11762145_a_at) / RFU FIZ1 (11724087_x_at) / Fold change /veh FIZ1 (11724087_x_at) / RFU OASL (11726364_x_at) / Fold change /veh OASL (11726364_x_at) / RFU SOX15 (11748057_x_at) / Fold change /veh SOX15 (11748057_x_at) / RFU CD79A (11719716_a_at) / Fold change /veh CD79A (11719716_a_at) / RFU HIST1H1D (11736915_at) / Fold change /veh HIST1H1D (11736915_at) / RFU CASKIN2 (11723855_a_at) / Fold change /veh CASKIN2 (11723855_a_at) / RFU LOC730098 (11760151_x_at) / Fold change /veh LOC730098 (11760151_x_at) / RFU OR4N2 (11742367_at) / Fold change /veh OR4N2 (11742367_at) / RFU PRRT2 (11749266_a_at) / Fold change /veh PRRT2 (11749266_a_at) / RFU SNX32 (11753110_a_at) / Fold change /veh SNX32 (11753110_a_at) / RFU CDHR5 (11726645_a_at) / Fold change /veh CDHR5 (11726645_a_at) / RFU RCAN1 (11760418_a_at) / Fold change /veh RCAN1 (11760418_a_at) / RFU FAM167A (11723789_a_at) / Fold change /veh FAM167A (11723789_a_at) / RFU FAM26E (11764081_at) / Fold change /veh FAM26E (11764081_at) / RFU ISYNA1 (11749810_s_at) / Fold change /veh ISYNA1 (11749810_s_at) / RFU ACY1 (11761880_at) / Fold change /veh ACY1 (11761880_at) / RFU 11764098_at / Fold change /veh 11764098_at / RFU SAMD14 (11745864_x_at) / Fold change /veh SAMD14 (11745864_x_at) / RFU NPB (11741838_a_at) / Fold change /veh NPB (11741838_a_at) / RFU TMPRSS6 (11731388_a_at) / Fold change /veh TMPRSS6 (11731388_a_at) / RFU KRTAP10-2 (11738614_at) / Fold change /veh KRTAP10-2 (11738614_at) / RFU ARHGAP8 /// PRR5-ARHGAP8 (11727945_x_at) / Fold change /veh ARHGAP8 /// PRR5-ARHGAP8 (11727945_x_at) / RFU KRTAP5-7 /// NADSYN1 (11734609_at) / Fold change /veh KRTAP5-7 /// NADSYN1 (11734609_at) / RFU RASL12 (11751679_a_at) / Fold change /veh RASL12 (11751679_a_at) / RFU CDKN2B (11736163_a_at) / Fold change /veh CDKN2B (11736163_a_at) / RFU PRF1 (11729649_at) / Fold change /veh PRF1 (11729649_at) / RFU, ZNF638 /// ZNF638-IT1 / Fold change vs veh, ZNF638 /// ZNF638-IT1 / RFU, PANK3 / Fold change vs veh, PANK3 / RFU, SH3YL1 / Fold change vs veh, SH3YL1 / RFU, ZEB2 / Fold change vs veh, ZEB2 / RFU, NRIP1 / Fold change vs veh, NRIP1 / RFU, PTTG1IP / Fold change vs veh, PTTG1IP / RFU, CAPN2 / Fold change vs veh, CAPN2 / RFU, MED14 / Fold change vs veh, MED14 / RFU, SNORA58 / Fold change vs veh, SNORA58 / RFU, C1orf63 / Fold change vs veh, C1orf63 / RFU, LRRFIP1 / Fold change vs veh, LRRFIP1 / RFU, NDUFAF7 / Fold change vs veh, NDUFAF7 / RFU, SLC12A2 / Fold change vs veh, SLC12A2 / RFU, IBTK / Fold change vs veh, IBTK / RFU, ESF1 / Fold change vs veh, ESF1 / Fold change vs veh, TMEM50B / RFU, TAOK1 / Fold change vs veh, TAOK1 / RFU, ACBD3 / Fold change vs veh, ACBD3 / RFU, TMA16 / Fold change vs veh, TMA16 / RFU, RWDD3 / Fold change vs veh, RWDD3 / RFU, BCAT1 / Fold change vs veh, BCAT1 / RFU, EDEM3 / Fold change vs veh, EDEM3 / RFU, TMEM33 / Fold change vs veh, TMEM33 / RFU, WDR75 / Fold change vs veh, WDR75 / RFU, AHCTF1 / Fold change vs veh, AHCTF1 / RFU, TFRC / Fold change vs veh, TFRC / RFU, ZDHHC17 / Fold change vs veh, ZDHHC17 / RFU, NOM1 / Fold change vs veh, NOM1 / RFU, ARL8B / Fold change vs veh, ARL8B / RFU, ZBTB11 / Fold change vs veh, ZBTB11 / RFU, TAMM41 / Fold change vs veh, TAMM41 / RFU, KIAA1704 /// LOC100996395 / Fold change vs veh, KIAA1704 /// LOC100996395 / RFU, ING1 / Fold change vs veh, ING1 / RFU, TRMT61B / Fold change vs veh, TRMT61B / RFU, FUBP3 / Fold change vs veh, FUBP3 / RFU, TP53 / Fold change vs veh, TP53 / RFU, TNKS2 / Fold change vs veh, TNKS2 / RFU, ZFP14 / Fold change vs veh, ZFP14 / RFU, ACTR2 / Fold change vs veh, ACTR2 / RFU, PPP3R1 / Fold change vs veh, PPP3R1 / RFU, PIK3R1 / Fold change vs veh, PIK3R1 / RFU, HNRNPA1 / Fold change vs veh, HNRNPA1 / RFU, RNF170 / Fold change vs veh, RNF170 / RFU, ZNF28 / Fold change vs veh, ZNF28 / RFU, RNGTT / Fold change vs veh, RNGTT / RFU, OGT / Fold change vs veh, OGT / RFU, BRD1 / Fold change vs veh, BRD1 / RFU, MARS / Fold change vs veh, MARS / RFU, ZNF655 / Fold change vs veh, ZNF655 / RFU, FAHD1 / Fold change vs veh, FAHD1 / RFU, BDP1 / Fold change vs veh, BDP1 / RFU, LRRCC1 / Fold change vs veh, LRRCC1 / RFU, ARID1A / Fold change vs veh, ARID1A / RFU, ZNF146 / Fold change vs veh, ZNF146 / RFU, ZNF330 / Fold change vs veh, ZNF330 / RFU, GPN3 / Fold change vs veh, GPN3 / RFU, C9orf123 / Fold change vs veh, C9orf123 / RFU, N4BP2L2 / Fold change vs veh, N4BP2L2 / RFU, ARFIP1 / Fold change vs veh, ARFIP1 / RFU, FAM179B / Fold change vs veh, FAM179B / RFU, BCL10 / Fold change vs veh, BCL10 / RFU, UHRF1BP1L / Fold change vs veh, UHRF1BP1L / RFU, BET1 / Fold change vs veh, BET1 / RFU, CNOT2 / Fold change vs veh, CNOT2 / RFU, ZNF268 / Fold change vs veh, ZNF268 / Fold change vs veh, ZNF507 / RFU, DGCR2 / Fold change vs veh, DGCR2 / RFU, WDSUB1 / Fold change vs veh, WDSUB1 / Fold change vs veh, HSP90B1 /// MIR3652 / RFU, ADSS / Fold change vs veh, ADSS / RFU, GK / Fold change vs veh, GK / RFU, ZNF148 / Fold change vs veh, ZNF148 / RFU, TAF9 / Fold change vs veh, TAF9 / RFU, SLC1A5 / Fold change vs veh, SLC1A5 / RFU, SLMO2 / Fold change vs veh, SLMO2 / RFU, ABCC4 / Fold change vs veh, ABCC4 / RFU, LOC101060439 /// RAP1B / Fold change vs veh, LOC101060439 /// RAP1B / RFU, RFX7 / Fold change vs veh, RFX7 / RFU, GTPBP10 / Fold change vs veh, GTPBP10 / RFU, CNEP1R1 / Fold change vs veh, CNEP1R1 / RFU, BIVM-ERCC5 /// ERCC5 / Fold change vs veh, BIVM-ERCC5 /// ERCC5 / RFU, ILF3 / Fold change vs veh, ILF3 / RFU 11762660_at / Fold change /veh 11762660_at / RFU VCAN (11757783_s_at) / Fold change /veh VCAN (11757783_s_at) / RFU DDX43 (11728927_at) / Fold change /veh DDX43 (11728927_at) / RFU KRT8 (11758188_x_at) / Fold change /veh KRT8 (11758188_x_at) / RFU NKD1 (11759106_at) / Fold change /veh NKD1 (11759106_at) / RFU SRD5A1 (11742802_a_at) / Fold change /veh SRD5A1 (11742802_a_at) / RFU TPSAB1 /// TPSB2 (11721975_s_at) / Fold change /veh TPSAB1 /// TPSB2 (11721975_s_at) / RFU GSTM3 (11746129_a_at) / Fold change /veh GSTM3 (11746129_a_at) / RFU IL23R (11737362_x_at) / Fold change /veh IL23R (11737362_x_at) / RFU TMEM51 (11727254_a_at) / Fold change /veh TMEM51 (11727254_a_at) / RFU PIWIL2 (11732686_x_at) / Fold change /veh PIWIL2 (11732686_x_at) / RFU ORM1 (11744905_x_at) / Fold change /veh ORM1 (11744905_x_at) / RFU CCDC152 (11743942_at) / Fold change /veh CCDC152 (11743942_at) / RFU ECM1 (11717891_a_at) / Fold change /veh ECM1 (11717891_a_at) / RFU IL23R (11748794_a_at) / Fold change /veh IL23R (11748794_a_at) / RFU TNFAIP8L3 (11732012_x_at) / Fold change /veh TNFAIP8L3 (11732012_x_at) / RFU MBOAT4 (11741988_at) / Fold change /veh MBOAT4 (11741988_at) / RFU 11764193_at / Fold change /veh 11764193_at / RFU TMEM53 (11763286_at) / Fold change /veh TMEM53 (11763286_at) / RFU MAGEB2 (11727129_at) / Fold change /veh MAGEB2 (11727129_at) / RFU TMEM200A (11744735_a_at) / Fold change /veh TMEM200A (11744735_a_at) / RFU CCDC152 (11751479_a_at) / Fold change /veh CCDC152 (11751479_a_at) / RFU FAM211A (11726209_a_at) / Fold change /veh FAM211A (11726209_a_at) / RFU RGS16 (11746705_a_at) / Fold change /veh RGS16 (11746705_a_at) / RFU VCAN (11755009_s_at) / Fold change /veh VCAN (11755009_s_at) / RFU RHOB (11743442_s_at) / Fold change /veh RHOB (11743442_s_at) / RFU RGS16 (11720943_a_at) / Fold change /veh RGS16 (11720943_a_at) / RFU RGS16 (11720944_at) / Fold change /veh RGS16 (11720944_at) / RFU, VPS4B / Fold change vs veh, VPS4B / RFU, CREB1 / Fold change vs veh, CREB1 / RFU, DNAJC13 / Fold change vs veh, DNAJC13 / RFU, GNAQ / Fold change vs veh, GNAQ / RFU, CDK5R1 / Fold change vs veh, CDK5R1 / RFU, ZRANB3 / Fold change vs veh, ZRANB3 / RFU, CUL4A / Fold change vs veh, CUL4A / RFU, CCNY / Fold change vs veh, CCNY / RFU, UFL1 / Fold change vs veh, UFL1 / RFU, COG3 / Fold change vs veh, COG3 / RFU, DIAPH2 / Fold change vs veh, DIAPH2 / RFU, SKA2 / Fold change vs veh, SKA2 / RFU, AFF3 / Fold change vs veh, AFF3 / RFU, LMF1 / Fold change vs veh, LMF1 / RFU, IPO11 / Fold change vs veh, IPO11 / RFU, DFFB / Fold change vs veh, DFFB / RFU, FOXP1 / Fold change vs veh, FOXP1 / RFU, CARD8 / Fold change vs veh, CARD8 / RFU, STRN3 / Fold change vs veh, STRN3 / RFU, ADK / Fold change vs veh, ADK / RFU, RASSF2 / Fold change vs veh, RASSF2 / RFU, WIPF1 / Fold change vs veh, WIPF1 / RFU, LARP1B / Fold change vs veh, LARP1B / RFU, RASA1 / Fold change vs veh, RASA1 / RFU, RB1 / Fold change vs veh, RB1 / RFU, PPFIA1 / Fold change vs veh, PPFIA1 / RFU, MAT2A / Fold change vs veh, MAT2A / RFU, CCT5 / Fold change vs veh, CCT5 / RFU, WDR92 / Fold change vs veh, WDR92 / RFU, CUX1 / Fold change vs veh, CUX1 / RFU, TTC7A / Fold change vs veh, TTC7A / RFU, TMEM135 / Fold change vs veh, TMEM135 / RFU, DEPTOR / Fold change vs veh, DEPTOR / RFU, CPM / Fold change vs veh, CPM / RFU, DNAJB6 / Fold change vs veh, DNAJB6 / RFU, CACNA2D3 / Fold change vs veh, CACNA2D3 / RFU, DTX4 / Fold change vs veh, DTX4 / RFU, TFCP2 / Fold change vs veh, TFCP2 / RFU, GMCL1 /// GMCL1P1 / Fold change vs veh, GMCL1 /// GMCL1P1 / RFU, AEBP2 / Fold change vs veh, AEBP2 / RFU, SNHG1 /// SNORD22 /// SNORD25 /// SNORD26 /// SNORD27 /// SNORD28 /// SNORD29 /// SNORD31 / Fold change vs veh, SNHG1 /// SNORD22 /// SNORD25 /// SNORD26 /// SNORD27 /// SNORD28 /// SNORD29 /// SNORD31 / Fold change (Aza/veh), C12orf56 (ProbeSet 11735607_a_at) / Fold change (ACY-1035/veh), C12orf56 (ProbeSet 11735607_a_at) / Fold change (Aza/veh), FGFR1OP (ProbeSet 11751329_s_at) / Fold change (ACY-1035/veh), FGFR1OP (ProbeSet 11751329_s_at) / Fold change (Aza/veh), VPS36 (ProbeSet 11739960_a_at) / Fold change (ACY-1035/veh), VPS36 (ProbeSet 11739960_a_at) / RFU SYPL1 (11715823_x_at) / Fold change /veh SYPL1 (11715823_x_at) / RFU IGFBP7 (11715501_s_at) / Fold change /veh IGFBP7 (11715501_s_at) / RFU REEP3 (11722064_at) / Fold change /veh REEP3 (11722064_at) / RFU IGLL1 (11728026_x_at) / Fold change /veh IGLL1 (11728026_x_at): dose or concentration left out as unconfirmed
Details: MV-4-11 cells, 48 hours

Nc1ccc(-c2cccs2)cc1NC(=O)c1ccc2c(c1)cc(C1CC1)n2CCN1CCOCC1 [ACY-1035]
Fold change /veh C10orf10 (11716521_a_at): 0.91
